These results are taken from US8088805B2, “Inhibitors of histone deacetylase” (MethylGene Inc., priority 2004, dated 2012).

The subject of one assay is SW48 colon cancer cells. As to the kind of experiment: Human tumor xenograft in vivo, SW48. The note with it: Mus musculus, 30 mg/kg ip, mice, read-out: % Inhibition (relative to vehicle control) SW48. Here is the method: (§1) Eight to ten week old female BCD1 mice (Taconic Labs, Great Barrington, N.Y.) were injected subcutaneously in the flank area with 2×10^6 preconditioned HCT116 human colorectal carcinoma cells, SW48 colon cancer cells, and A549 lung cancer cells. Preconditioning of these cells was done by a minimum of three consecutive tumor transplantations in the same strain of nude mice. Subsequently, tumor fragments of approximately 30 mgs were excised and implanted subcutaneously in mice, in the left flank area, under Forene anesthesia (Abbott Labs, Geneva, Switzerland). When the tumors reached a mean volume of 100 mm^3, the mice were treated intraperitoneally by daily injection, with a solution of the histone deacetylase inhibitor in DMSO, at a starting dose of 10 mg/kg. The optimal dose of the HDAC inhibitor was established by dose response experiments according to standard protocols. Tumor volume was calculated every second day post infusion according to standard methods (e.g., Meyer et al., Int. J. Cancer 43: 851-856 (1989)).

The test system of assay [1] is HCT116 human colorectal carcinoma cells. As to the kind of experiment: Human tumor xenograft in vivo, HCT116. Conditions: Mus musculus, HCT-116; 30 mg/kg ip, mice; read-out: % Inhibition (relative to vehicle control) HCT116. Here is the method: as §1
The next assay has as its system A549 lung cancer cells. As to the kind of experiment: Human tumor xenograft in vivo, A549. The note with it: 30 mg/kg ip, mice. Here is the method:
as §1

A further assay addresses Human HDAC-1 (Homo sapiens, UniProt Q13547). As to the kind of experiment: HDAC-1 enzymatic inhibition, Assay 2 (Boc-Lys(Ac)-AMC, Fluor-de-Lys). The format is biochemical. Conditions: Assay 2: Boc-Lys(Ac)-AMC substrate, fluorescence; read-out: HDAC1 IC50. Here is the method: Assay 2. The following protocol was also used to assay the compounds of the invention. In the assay, the buffer used was 25 mM HEPES, pH 8.0, 137 mM NaCl, 2.7 mM KCl, 1 mM MgCl2 and the substrate was Boc-Lys(Ac)-AMC in a 50 mM stock solution in DMSO. The enzyme stock solution was 4.08 μg/mL in buffer. The compounds were pre-incubated (2 μl in DMSO diluted to 13 μl in buffer for transfer to assay plate) with enzyme (20 μl of 4.08 μg/ml) for 10 minutes at room temperature (35 μl pre-incubation volume). The mixture was pre-incubated for 5 minutes at room temperature. The reaction was started by bringing the temperature to 37° C. and adding […] substrate. Total reaction volume was 50 μl. The reaction was stopped after 20 minutes by addition of 50 μl developer, prepared as directed by Biomol (Fluor-de-Lys developer, Cat. # KI-105). A plate was incubated in the dark for 10 minutes at room temperature before reading (λEx=360 nm, λEm=470 nm, Cutoff filter at 435 nm).
Assay 1 was used to measure HDAC activity of compounds 10c, 13e, 16d, 26b, 44, 47, 61a, 61b, 63, 134, 138, and 308. Assay 2 was used to measure HDAC activity of compounds 361, 366, 367, 368, 369, 370, 371, 372, 373, 374, 375, 376, 377, and 378. In Table 14, “a” indicates activity of ≦0.1 μM, “b” indicates activity of ≦1 μM, “c” indicates activity of ≦5 μM, and “d” indicates activity of >5 μm. For the H4-Ac T24 EC vs. MS-275 assay in Table 14, “u” indicates less than 1, “v” indicates 1, and “w” indicates greater than 1. For the H3 Ac t24 assay in Table 14, “x” indicates activity of ≦1 μM, “y” indicates activity of ≦10 μM, and “z” indicates activity of ≦20 μM.

Assay [2] deals with Histone H3 acetylation in T24 human bladder cancer cells. As to the kind of experiment: Histone H3 acetylation assay. The format is cell-based. The note with it: T-24, 16 h, concentration giving 50% of Emax of MS-275, read-out: H3 Ac t24. The protocol: T24 human bladder cancer cells growing in culture are incubated with HDAC inhibitors for 16 h. Cell viability is determined by adding 10 μl Alamar Blue (BioSource, DAL1100). Cells are washed once with PBS and fixed with methanol precooled to −20° C. for 10 min. The cells are then washed twice in PBS. The fixed cells are blocked with 50 μl of PBS+0.1% Triton X-100. Cells are probed with rabbit-anti-acetyl-H3 (Upstate #06-599) as the primary antibody and then with goat-anti-rabbit-HRP (Sigma #A-0545) as the secondary antibody. Fluorescence is read by fluorometer at Ex:550, Em:610, Cutoff:590 (Auto PMT, 15 reads/well) after addition of Amplex-Red. Fluorescence signal is normalized against cell viability derived from Alamar Blue. Maximum acetylation signal of MS-275 (fluorescence unit) is measured as Emax. The concentration of compound which gives 50% of Emax is EC50. In Table 14, “x” indicates activity of ≦1 μM, “y” indicates activity of ≦10 μM, and “z” indicates activity of ≦20 μM.

Another assay relates to HCT116 cells. As to the kind of experiment: MTT assay. Type of assay: cell-based. Conditions: Homo sapiens, HCT-116, 72 hours. The protocol: HCT116 cells (2000/well) were plated into 96-well tissue culture plates one day before compound treatment. Compounds at various concentrations were added to the cells. The cells were incubated for 72 hours at 37° C. in 5% CO2 incubator. MTT (3-[4,5-dimethylthiazol-2-yl]-2,5diphenyl tetrazolium bromide, Sigma) was added at a final concentration of 0.5 mg/ml and incubated with the cells for 4 hours before one volume of solubilization buffer (50% N,N-dimethylformamide, 20% SDS, pH 4.7) was added onto the cultured cells. After overnight incubation, solubilized dye was quantified by colorimetric reading at 570 nM using a reference at 630 nM using an MR700 plate reader (Dynatech Laboratories Inc.). OD values were converted to cell numbers according to a standard growth curve of the relevant cell line. The concentration which reduces cell numbers to 50% of that of solvent treated cells is determined as MTT IC50. In Table 14, “a” indicates activity of ≦0.1 μM, “b” indicates activity of ≦1 μM, and “c” indicates activity of ≦5 μM.

A value given as a limit tells only on which side of the number the result lay.

Human HDAC-1, sequence (Q13547 whole entry): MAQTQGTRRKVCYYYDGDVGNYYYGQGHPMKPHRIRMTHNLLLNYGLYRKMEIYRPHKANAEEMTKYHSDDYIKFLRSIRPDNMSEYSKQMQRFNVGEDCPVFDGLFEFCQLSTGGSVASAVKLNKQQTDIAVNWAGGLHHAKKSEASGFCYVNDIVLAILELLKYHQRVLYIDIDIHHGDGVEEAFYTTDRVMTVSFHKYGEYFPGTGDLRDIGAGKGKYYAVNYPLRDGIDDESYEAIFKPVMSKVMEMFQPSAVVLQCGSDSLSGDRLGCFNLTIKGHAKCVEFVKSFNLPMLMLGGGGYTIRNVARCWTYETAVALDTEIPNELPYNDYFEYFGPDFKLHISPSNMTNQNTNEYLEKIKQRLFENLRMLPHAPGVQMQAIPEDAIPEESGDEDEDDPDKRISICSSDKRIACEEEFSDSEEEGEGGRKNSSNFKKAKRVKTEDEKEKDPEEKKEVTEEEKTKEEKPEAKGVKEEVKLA

With `COc1ccc(CCNc2ccnc(NCc3ccc(C(=O)Nc4ccccc4N)cc3)n2)cc1OC` [10a, N-(2-Amino-phenyl)-4-({4-[2-(3,4-dimethoxy-phenyl)-ethylamino]-pyrimidin-2-ylamino}-methyl)-benzamide], the inhibition in vivo at 30 mg/kg with SW48 colon cancer cells came to 23%; in assay [1], 16.1%.
The matching figures for `Nc1ccccc1NC(=O)c1ccc(CNc2nccc(-c3nccs3)n2)cc1` [26c, N-(2-Amino-phenyl)-4-[(4-thiazol-2-yl-pyrimidin-2-ylamino)-methyl]-benzamide]: 89.5% and 88%.
As for `CN(C)C(=O)c1ccc(-c2ccnc(NCc3ccc(C(=O)Nc4ccccc4N)cc3)n2)cn1` [29a, 5-{2-[4-(2-Amino-phenylcarbamoyl)-benzylamino]-pyrimidin-4-yl}-pyridine-2-carboxylic acid dimethylamide], in the assay with SW48 colon cancer cells, the inhibition in vivo at 30 mg/kg was 70.2%. In addition, in the assay on A549 lung cancer cells, the “% Inhibition (relative to vehicle control) A549” value was 31.8%.
With `Nc1ccccc1NC(=O)c1ccc(CNc2nccc(-c3ccncc3)n2)cc1` [31b, N-(2-Amino-phenyl)-4-[(4-pyridin-4-yl-pyrimidin-2-ylamino)-methyl]-benzamide], the inhibition in vivo at 30 mg/kg with SW48 colon cancer cells turned out to be 47.8%; in assay [1] it was 39.4%.
On to `Nc1ccccc1NC(=O)c1ccc(CNc2nccc(-c3ccc(N4CCOCC4)nc3)n2)cc1` [34a, N-(2-Amino-phenyl)-4-{[4-(6-morpholin-4-yl-pyridin-3-yl)-pyrimidin-2-ylamino]-methyl}-benzamide], for which the inhibition in vivo at 30 mg/kg in the assay with SW48 colon cancer cells is 25.5%. Moreover, the “% Inhibition (relative to vehicle control) A549” value in the assay on A549 lung cancer cells amounted to 67.1%.
Consider `COCOC(C)(C)c1ccc(-c2ccnc(NCc3ccc(C(=O)Nc4ccccc4N)cc3)n2)cn1` [58b, N-(2-Amino-phenyl)-4-({4-[6-(1-methoxymethoxy-1-methyl-ethyl)-pyridin-3-yl]-pyrimidin-2-ylamino}-methyl)-benzamide], for which the figures for the inhibition in vivo at 30 mg/kg (in the assay with SW48 colon cancer cells; in assay [1]) were 34.6% and 29.4%, respectively.
On to `CC(=O)Nc1ccc(NCc2ccc(C(=O)Nc3ccccc3N)cc2)cn1` [212f, 4-[(6-Acetylamino-pyridin-3-ylamino)-methyl]-N-(2-amino-phenyl)-benzamide], for which the inhibition in vivo at 30 mg/kg in the assay with SW48 colon cancer cells worked out at 32.7%; in assay [1], 65.7%.
For `COc1ccc(NCc2ccc(C(=O)Nc3ccccc3N)cc2)cc1F` [212h, N-(2-Amino-phenyl)-4-[(3-fluoro-4-methoxy-phenylamino)-methyl]-benzamide], the inhibition in vivo at 30 mg/kg with SW48 colon cancer cells came to 44%. For the same compound, in the assay on A549 lung cancer cells, the “% Inhibition (relative to vehicle control) A549” value is reported as 54.4%.
As to `CN(C)CC(=O)Nc1ccc2nc(SCc3ccc(C(=O)Nc4ccccc4N)cc3)sc2c1` [compound 158, N-(2-Amino-phenyl)-4-[6-(2-dimethylamino-acetylamino)-benzothiazol-2-ylsulfanylmethyl]-benzamide], the inhibition in vivo at 30 mg/kg with SW48 colon cancer cells was determined as 43.2%. Besides, the “% Inhibition (relative to vehicle control) A549” value in the assay with A549 lung cancer cells is given as 42.6%.
For the compound `Nc1ccccc1NC(=O)c1ccc(CSc2nc3cc(F)c(F)cc3[nH]2)cc1` [compound 194, N-(2-Amino-phenyl)-4-(5,6-difluoro-1H-benzoimidazol-2-ylsulfanylmethyl)-benzamide], the figures for the inhibition in vivo at 30 mg/kg (in the assay with SW48 colon cancer cells; in assay [1]) were 23.1% and 54.5%, respectively.
The corresponding values for `Cn1cnc2cc(NCc3ccc(C(=O)Nc4ccccc4N)cc3)ccc21` [compound 252, N-(2-Amino-phenyl)-4-[(1-methyl-1H-benzoimidazol-5-ylamino)-methyl]-benzamide] are 25.9% and 70.6%.
Consider `CCC(=O)Nc1sc(Cc2ccc(C(=O)Nc3ccccc3N)cc2)cc1C(N)=O` [compound 296, 5-[4-(2-Amino-phenylcarbamoyl)-benzyl]-2-propionylamino thiophene-3-carboxylic acid amide], for which the values for the inhibition in vivo at 30 mg/kg (with SW48 colon cancer cells; in assay [1]) were 53.4% and 63.9%, respectively.
Consider `Nc1ccccc1NC(=O)c1ccc(N2CC[C@H](Nc3cccnc3)C2)cc1` [compound 361, (S)—N-(2-Aminophenyl)-4-(3-(pyridin-3-ylamino)pyrrolidin-1-yl)benzamide], for which the IC50 at Human HDAC-1 is no more than 100 nM; in the assay with HCT116 cells, 100 to 1000 nM. Besides, the EC50 in assay [2] is no more than 10000 nM.
`Nc1ccccc1NC(=O)c1ccc(N2CC[C@@H](Nc3cccnc3)C2)cc1` [compound 366, (R)—N-(2-Aminophenyl)-4-(3-(pyridin-3-ylamino)pyrrolidin-1-yl)benzamide]: the results for the half-maximal inhibitory concentration (IC50) at Human HDAC-1 and in the assay on HCT116 cells were 100 to 1000 nM and 1000 to 5000 nM, respectively. The EC50 in assay [2] is no more than 20000 nM.
The corresponding values for `Nc1ccccc1NC(=O)c1ccc(N2CC[C@H](Oc3cccnc3)C2)cc1` [compound 367, (S)—N-(2-Aminophenyl)-4-(3-(pyridin-3-yloxy)pyrrolidin-1-yl)benzamide] are 100 to 1000 nM, 100 to 1000 nM and no more than 10000 nM.
The matching figures for `Nc1ccccc1NC(=O)c1ccc(N2CC[C@H](Nc3ccccc3)C2)cc1` [compound 369, (S)—N-(2-Aminophenyl)-4-(3-(phenylamino)pyrrolidin-1-yl)benzamide]: 100 to 1000 nM, 100 to 1000 nM and no more than 1000 nM.
The corresponding values for `COc1cc(O[C@H]2CCN(c3ccc(C(=O)Nc4ccccc4N)cc3)C2)cc(OC)c1OC` [compound 374, (S)—N-(2-Aminophenyl)-4-(3-(3,4,5-trimethoxyphenoxy)pyrrolidin-1-yl)benzamide] are no more than 100 nM, 100 to 1000 nM and no more than 1000 nM.
Turning to `Nc1ccccc1NC(=O)c1ccc(N2CC[C@H](Oc3ccc4c(c3)OCO4)C2)cc1` [compound 375, (S)—N-(2-Aminophenyl)-4-(3-(benzo[d][1,3]dioxol-5-yloxy)pyrrolidin-1-yl)benzamide], the IC50 on Human HDAC-1 is no more than 100 nM; in the assay with HCT116 cells, greater than 5000 nM. The EC50 in assay [2] was no more than 1000 nM.
The corresponding values for `Nc1ccccc1NC(=O)c1ccc(N2CC[C@H](Sc3ccccn3)C2)cc1` [compound 378, (S)—N-(2-Aminophenyl)-4-(3-(pyridin-2-ylthio)pyrrolidin-1-yl)benzamide] are 100 to 1000 nM, 100 to 1000 nM and no more than 10000 nM.
